Consider two compounds from article PMC5177923 (2016).

The subject of assay [1] is c-mycBiotin (DNA, i motif) CCTTCCCCACCCTCCCCACCCTCCCCA
As to the kind of experiment: SPR, equilibrium affinity fit, 1:1 model. Particulars: 100 mM NaCl; 10 mM sodium cacodylate pH 5.5, 0.05% Tween-20, 5% DMSO, 25 °C. For orientation: Surface plasmon resonance follows binding to a sensor surface in real time, without labels.

In assay [2] the test system is DSBiotin (DNA, duplex) GGCATAGTGCGTGGGCGTTAGC/GCTAACGCCCACGCACTATGCC
As to the kind of experiment: SPR, equilibrium affinity fit, 1:1 model. Particulars: 100 mM NaCl; 10 mM sodium cacodylate pH 5.5, 0.05% Tween-20, 5% DMSO, 25 °C.

The subject of assay [3] is hTeloGFRET (DNA, G4) GGGTTAGGGTTAGGGTTAGGG
The experiment in a line: FRET melting. Particulars: 100 mM NaCl; 10 mM sodium cacodylate pH 7.4; 10 μM compound, 200 nM DNA.

Assay [4] relates to hTeloCBiotin (DNA, i motif) TAACCCTAACCCTAACCCTAACCC
As to the kind of experiment: SPR, equilibrium affinity fit, 1:1 model. Particulars: 100 mM NaCl; 10 mM sodium cacodylate pH 5.5, 0.05% Tween-20, 5% DMSO, 25 °C.

Assay [5] concerns DSFRET (DNA, hairpin, HEG(18) linker (non-nucleotide) between 10 and 11) TATAGCTATATATAGCTATA
The experiment in a line: FRET melting. Particulars: 100 mM NaCl; 10 mM sodium cacodylate pH 7.4; 10 μM compound, 200 nM DNA.

The test system of assay [6] is hTeloC (DNA, i motif) TAACCCTAACCCTAACCCTAACCC
As to the kind of experiment: circular dichroism. The following applies: 100 mM NaCl; 10 mM sodium cacodylate pH 5.5, 20 °C. (CD spectra are sensitive to the conformation of chiral molecules.)

In assay [7] the test system is hTeloCFRET (DNA, i motif) TAACCCTAACCCTAACCCTAACCC
As to the kind of experiment: FRET melting. The following applies: 100 mM NaCl; 10 mM sodium cacodylate pH 6; 10 μM compound, 200 nM DNA.

As a reminder, the Kd is the equilibrium constant for the complex coming apart.

SMILES strings stand for the structures.

Regarding `O=C1c2c(O)ccc(O)c2C(=O)c2c(NCCNCCO)ccc(NCCNCCO)c21`, the results for the dissociation constant Kd in assay [1], in assay [2] and in assay [4] were 12 ± 3 µM, ~ 71 ± 22 μM and 12 ± 3 µM, respectively. For the same compound, the “∆Tm” value in assay [3] was “+16 °C”; in assay [5], “+6.4 °C”. For the same compound, in assay [6], the binding result was “yes”.

Regarding `CN(C)CCNc1cccc2c1C(=O)c1cccc(NCCNc3ccccc3)c1C2=O`, the ΔTm entry in assay [3] was “+0.4 °C”; in assay [7], “+17 °C”.
